US20080319020A1, “4-Oxadiazolyl-Piperidine Compounds and Use Thereof” (Purdue Pharma L.P., priority 2005, published 2008)
Read-outs that look alike come from different tables or passages of the source.

Legend:
kappa opioid receptor [1] = target: T1, kappa opioid receptor (Homo sapiens, UniProt P41145); assay: κ opioid receptor binding assay ([3H]-U69,593)
T1 construct: expressed in transfected cells; host or cells: HEK-293
Description: Membranes from recombinant HEK-293 cells expressing the human kappa opioid receptor (kappa) (cloned in house) were prepared by lysing cells in ice cold hypotonic buffer (2.5 mM MgCl2, 50 mM HEPES, pH 7.4) (10 ml/10 cm dish) followed by homogenization with a tissue grinder/teflon pestle. Membranes were collected by centrifugation at 30,000×g for 15 min at 4° C. and pellets resuspended in hypotonic buffer to a final concentration of 1-3 mg/ml. Protein concentrations were determined using the BioRad protein assay reagent with bovine serum albumen as standard. Aliquots of kappa receptor membranes were stored at −80° C.
Radioligand dose displacement assays used 0.4-0.8 nM [^3H]-U69,593 (NEN; 40 Ci/mmole) with 10-20 μg membrane protein (recombinant kappa opioid receptor expressed in HEK 293 cells; in-house prep) in a final volume of 200 μl binding buffer (5% DMSO, 50 mM Trizma base, pH 7.4). Non-specific binding was determined in the presence of 10 μM unlabeled naloxone or U69,593. All reactions were performed in 96-well polypropylene plates for 1 h at room temperature. Binding reactions were determined by rapid filtration onto 96-well Unifilter GF/C filter plates (Packard) presoaked in 0.5% polyethylenimine (Sigma). Harvesting was performed using a 96-well tissue harvester (Packard) followed by five filtration washes with 200 μl ice-cold binding buffer. Filter plates were subsequently dried at 50° C. for 1-2 hours. Fifty μl/well scintillation cocktail (MicroScint; Packard) was added and plates were counted in a Packard Top-Count for 1 min/well.

μ opioid receptor [2] = target: T2, μ opioid receptor (Homo sapiens, UniProt P35372); assay: μ-receptor [35S]GTPγS functional assay; type: biochemical; details: for Emax: maximal effect relative to DAMGO, read-out: μ GTP Emax
T2 sequence (P35372 whole entry): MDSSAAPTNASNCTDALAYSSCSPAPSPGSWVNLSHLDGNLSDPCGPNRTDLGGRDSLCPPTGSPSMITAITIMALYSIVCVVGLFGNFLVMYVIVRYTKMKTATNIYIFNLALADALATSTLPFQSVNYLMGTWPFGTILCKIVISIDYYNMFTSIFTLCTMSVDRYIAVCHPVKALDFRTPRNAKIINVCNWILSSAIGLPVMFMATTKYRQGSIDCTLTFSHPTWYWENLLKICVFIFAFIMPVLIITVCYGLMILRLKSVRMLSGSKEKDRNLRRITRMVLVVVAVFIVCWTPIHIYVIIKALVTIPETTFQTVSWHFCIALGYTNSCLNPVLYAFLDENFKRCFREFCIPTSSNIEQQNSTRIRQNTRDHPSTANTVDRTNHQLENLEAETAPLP
Description: [^35S]GTPγS functional assays are conducted using freshly thawed ORL-1 or μ-receptor membranes, as appropriate. Assay reactions are prepared by sequentially adding the following reagents to binding buffer (100 mM NaCl, 10 mM MgCl2, 20 mM HEPES, pH 7.4) on ice (final concentrations indicated): membrane protein (0.066 mg/mL for ORL-1 receptor and 0.026 mg/mL for μ-receptor), saponin ([…]), GDP ([…]) and [^35S]GTPγS (0.20 nM; NEN). Aliquots of the prepared membrane solution (190 μL/well) are transferred to 96-shallow well polypropylene plates containing 10 μL of 20× concentrated stock solutions of the agonist nociceptin prepared in dimethyl sulfoxide (“DMSO”). Plates are incubated for 30 min at room temperature with shaking. Reactions are terminated by rapid filtration onto 96-well Unifilter GF/B filter plates (Packard, Meriden, Conn.) using a 96-well tissue harvester (Brandel, Gaithersburg, Md.) followed by three filtration washes with 200 μL of ice-cold binding buffer (10 mM NaH2PO4, 10 mM Na2HPO4, pH 7.4). Filter plates are subsequently dried at 50° C. for 2-3 h. BetaScint scintillation cocktail (Wallac, Turku, Finland) is added (50 μL/well) and plates are counted using a Packard Top-Count for 1 min/well. Data are analyzed using the sigmoidal dose-response curve fitting functions in GraphPad PRISM, v. 3.0.
μ GTP EC50 is the concentration of a compound providing 50% of the maximal response for the compound at a μ receptor.
μ GTP Emax % is the maximal effect elicited by a compound relative to the effect elicited by [D-Ala2, N-methyl-Phe4, Gly-ol5]-enkephalin (“DAMGO”), a standard μ agonist. Generally, the μ GTP Emax (%) value measures the efficacy of a compound to treat or prevent pain or diarrhea.

μ opioid receptor [3] = target: T2, μ opioid receptor; assay: μ-opioid receptor radioligand dose-displacement binding assay ([3H]-diprenorphine)
Description: (§1) Radioligand dose-displacement binding assays for ORL-1 and μ receptors use 0.1 nM [^3H]-nociceptin or 0.2 nM [^3H]-diprenorphine (NEN, Boston, Mass.), respectively, with […] membrane protein/well in a final volume of […] binding buffer (10 mM MgCl2, 1 mM EDTA, 5% DMSO, 50 mM HEPES, pH 7.4). Reactions are carried out in the absence or presence of increasing concentrations of unlabeled nociceptin (American Peptide Company, Sunnyvale, Calif.) or naloxone, for ORL-1 and […], respectively. All reactions are conducted in 96-deep well polypropylene plates for 1-2 h at room temperature. Binding reactions are terminated by rapid filtration onto 96-well Unifilter GF/C filter plates (Packard, Meriden, Conn.) presoaked in 0.5% polyethylenimine using a 96-well tissue harvester (Brandel, Gaithersburg, Md.) followed by three filtration washes with 500 μL of ice-cold binding buffer. Filter plates are subsequently dried at 50° C. for 2-3 h. BetaScint scintillation cocktail (Wallac, Turku, Finland) is added (50 μl/well), and plates are counted using a Packard Top-Count for 1 min/well. The data are analyzed using the one-site competition curve fitting functions in GraphPad PRISM v. 3.0 (San Diego, Calif.).

kappa opioid receptor [4] = target: T1, kappa opioid receptor; assay: κ opioid receptor functional [35S]GTPγS binding assay; type: biochemical; details: for Emax: maximal effect relative to U69,593, read-out: κ GTP Emax
Description: κ GTP EC50 is the concentration of a compound providing 50% of the maximal response for the compound at an K receptor.
κ GTP Emax % is the maximal effect elicited by a compound relative to the effect elicited by U69,593.
(§2) The κ and δ opioid receptor functional [^35S]GTPγS binding assays were conducted as follows. Kappa or delta opioid receptor membrane solution was prepared by sequentially adding final concentrations of 0.026 μg/μl membrane protein (kappa: in-house, delta: Perkin Elmer), 10 μg/ml saponin, 3 μM GDP and 0.20 nM [^35S]GTPγS to binding buffer (100 mM NaCl, 10 mM MgCl2, 20 mM HEPES, pH 7.4) on ice. The prepared membrane solution (190 μl/well) was transferred to 96-shallow well polypropylene plates containing 10 μl of 20× concentrated stock solutions of agonist prepared in DMSO. Plates were incubated for 30 min at room temperature with shaking. Reactions were terminated by rapid filtration onto 96-well tissue harvester (Packard) and followed by three filtration washes with 200 μl ice-cold binding buffer (10 mM NaH2PO4), 10 mM Na2HPO4, pH 7.4). Filter plates were subsequently dried at 50° C. for 2-3 hours. Fifty μl/well scintillation cocktail (MicroScint20, Packard) was added and plates were counted in a Packard Top-Count for 1 min/well.

delta opioid receptor [5] = target: T3, delta opioid receptor (Homo sapiens, UniProt P41143); assay: δ opioid receptor binding assay ([3H]-Naltrindole)
T3 construct: purchased Perkin Elmer; host or cells: CHO-K1
T3 sequence (P41143 whole entry): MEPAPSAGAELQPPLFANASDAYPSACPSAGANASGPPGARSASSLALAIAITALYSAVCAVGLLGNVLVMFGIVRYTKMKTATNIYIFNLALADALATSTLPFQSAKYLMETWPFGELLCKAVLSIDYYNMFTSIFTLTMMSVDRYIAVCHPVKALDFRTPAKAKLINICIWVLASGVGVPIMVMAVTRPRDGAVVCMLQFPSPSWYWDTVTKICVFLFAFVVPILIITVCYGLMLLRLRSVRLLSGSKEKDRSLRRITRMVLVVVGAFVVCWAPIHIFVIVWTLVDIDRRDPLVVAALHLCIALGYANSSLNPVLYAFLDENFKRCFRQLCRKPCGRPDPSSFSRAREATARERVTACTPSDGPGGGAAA
Description: Radioligand dose-displacement assays used 0.2 nM [^3H]-Naltrindole (NEN; 33.0 Ci/mmole) with 10-20 μg membrane protein (recombinant delta opioid receptor expressend in CHO-K1 cells; Perkin Elmer) in a final volume of 500 μl binding buffer (5 mM MgCl2, 5% DMSO, 50 mM Trizma base, pH 7.4). Non-specific binding was determined in the presence of 25 μM unlabeled naloxone. All reactions were performed in 96-deep well polypropylene plates for 1 h at room temperature. Binding reactions were determined by rapid filtration onto 96-well Unifilter GF/C filter plates (Packard) presoaked in 0.5% polyethylenimine (Sigma). Harvesting was performed using a 96-well tissue harvester (Packard) followed by five filtration washes with 500 μl ice-cold binding buffer. Filter plates were subsequently dried at 50° C. for 1-2 hours. Fifty μl/well scintillation cocktail (MicroScint, Packard) was added and plates were counted in a Packard Top-Count for 1 min/well.

[6] = target: T4, human opioid receptor-like (ORL-1) receptor (Homo sapiens, UniProt P41146); assay: ORL-1 receptor radioligand dose-displacement binding assay ([3H]-nociceptin)
T4 construct: host or cells: HEK-293
T4 sequence (P41146 whole entry): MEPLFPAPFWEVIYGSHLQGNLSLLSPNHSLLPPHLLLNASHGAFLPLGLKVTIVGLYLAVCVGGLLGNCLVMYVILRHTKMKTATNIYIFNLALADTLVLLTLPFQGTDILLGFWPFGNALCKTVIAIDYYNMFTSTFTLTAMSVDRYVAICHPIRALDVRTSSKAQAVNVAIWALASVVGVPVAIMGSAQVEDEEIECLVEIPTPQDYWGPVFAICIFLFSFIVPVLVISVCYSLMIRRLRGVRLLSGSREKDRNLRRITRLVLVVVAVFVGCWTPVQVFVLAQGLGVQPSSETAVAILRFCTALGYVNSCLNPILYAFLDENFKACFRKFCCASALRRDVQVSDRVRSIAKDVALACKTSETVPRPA
Description: All reagents are obtained from Sigma (St. Louis, Mo.) unless noted otherwise. Membranes from recombinant HEK-293 cells expressing the human opioid receptor-like (ORL-1) receptor (Perkin Elmer, Boston, Mass.) are prepared by lysing cells in ice-cold hypotonic buffer (2.5 mM MgCl2, 50 mM HEPES, pH 7.4) (10 mL/10 cm dish), followed by homogenization with a tissue grinder/teflon pestle. Membranes are collected by centrifugation at 30,000×g for 15 min at 4° C., and pellets are resuspended in hypotonic buffer to a final concentration of 1-3 mg/mL. Protein concentrations are determined using the BioRad (Hercules, Calif.) protein assay reagent with bovine serum albumen as standard. Aliquots of the ORL-1 receptor membranes are stored at −80° C.
as §1

ORL-1 receptor = target: T5, ORL-1 receptor (Homo sapiens, UniProt P41146); assay: ORL-1 receptor [35S]GTPγS functional assay; type: biochemical
T5 construct: host or cells: HEK-293
T5 sequence (P41146 whole entry): as above
Description: Filter plates are subsequently dried at 50° C. for 2-3 h. […] 3.0.

delta opioid receptor [7] = target: T3, delta opioid receptor; assay: δ opioid receptor functional [35S]GTPγS binding assay; type: biochemical; details: for Emax: maximal effect relative to met-enkephalin, read-out: δ GTP Emax
Description: δ GTP EC50 is the concentration of a compound providing 50% of the maximal response for the compound at an δ receptor.
δ GTP Emax % is the maximal effect elicited by a compound relative to the effect elicited by met-enkephalin.
as §2

[8] = Ki for binding to μ-opioid receptors

T1 sequence (P41145 whole entry): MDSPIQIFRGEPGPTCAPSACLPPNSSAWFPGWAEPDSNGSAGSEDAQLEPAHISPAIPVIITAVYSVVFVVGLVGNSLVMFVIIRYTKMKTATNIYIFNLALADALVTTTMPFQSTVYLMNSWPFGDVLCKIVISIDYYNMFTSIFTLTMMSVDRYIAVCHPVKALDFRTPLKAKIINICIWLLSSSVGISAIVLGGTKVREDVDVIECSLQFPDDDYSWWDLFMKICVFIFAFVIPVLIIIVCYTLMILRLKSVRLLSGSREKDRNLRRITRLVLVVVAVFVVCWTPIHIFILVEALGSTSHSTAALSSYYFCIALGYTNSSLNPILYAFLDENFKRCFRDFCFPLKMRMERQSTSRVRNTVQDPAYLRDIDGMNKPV

Row | SMILES | Ki (kappa opioid receptor [1]) | EC50 (μ opioid receptor [2]) | Emax (μ opioid receptor [2]) | Ki (μ opioid receptor [3]; [8]) | Ki (μ opioid receptor [3]; μ Ki) | EC50 (kappa opioid receptor [4]) | Emax (kappa opioid receptor [4]) | Ki (delta opioid receptor [5]) | Ki [6] | EC50 (ORL-1 receptor) | Emax (ORL-1 receptor; maximal effect relative to nociceptin, read-out: ORL1 GTP Emax) | EC50 (delta opioid receptor [7]) | Emax (delta opioid receptor [7]) | Ki (kappa opioid receptor [1]; read-out: κ Ki) | EC50 (μ opioid receptor [2]; read-out: μ GTP EC50) | Ki (μ opioid receptor [3]; read-out: Ki for binding to μ-opioid receptors) | Ki (μ opioid receptor [3]; read-out: μ Ki) | EC50 (kappa opioid receptor [4]; read-out: κ GTP EC50) | Ki (delta opioid receptor [5]; read-out: δ Ki) | EC50 (delta opioid receptor [7]; read-out: δ GTP EC50)
1 | CN(C)C(=O)C(CCN1CCC(c2ccccc2)(c2noc(CC(N)=O)n2)CC1)(c1ccccc1)c1ccccc1 [AFE] | 152 nM | 16.1 nM | 116% | 5.9 nM | 5.92 nM | 1260 nM | 44.7% | 3620 nM | 1840 nM |  |  |  |  |  |  |  |  |  |  | 
2 | CCOC(=O)Cc1nc(C2(c3ccccc3)CCN(CCC(C(=O)N(C)C)(c3ccccc3)c3ccccc3)CC2)no1 [AFL] | 32.9 nM | 1.04 nM | 117% | 1.1 nM | 1.11 nM | 1680 nM | 52.7% | 223 nM | 696 nM | > 20000 nM | 28% | 84 nM | 114% |  |  |  |  |  |  | 
3 | NC(=O)Cc1nc(C2(c3ccccc3)CCN(CCC(C(=O)N3CCCC3)(c3ccccc3)c3ccccc3)CC2)no1 [AFX] | 365 nM | 8.09 nM | 90% | 4.8 nM | 4.82 nM | 3830 nM | 41.7% | 2320 nM | 1290 nM |  |  |  |  |  |  |  |  |  |  | 
4 | CCOC(=O)Cc1nc(C2(c3ccccc3)CCN(CCC(C(=O)N3CCCC3)(c3ccccc3)c3ccccc3)CC2)no1 [AGE] |  |  | 103% |  |  |  | 56% |  | 3850 nM |  |  |  | 104% | 91.9 nM | 2.03 nM | 1.3 nM | 1.29 nM | 704 nM | 341 nM | 21.5 nM
